Laboratory results taken from patent US20210238169A1, “PROCESS FOR PREPARING A COMPOUND OF FORMULA (XIII)” (PULMOCIDE LIMITED, priority 2014, published 2021).
≈ marks a conversion by molar mass, not a printed value. Like-named read-outs stand apart in the source and are kept apart here.

Key:
[1] = test system: Aspergillus flavus; assay: Fungus panel screening, CLSI broth microdilution; format: cell-based; settings: strain ATCC204304, visual inspection (CLSI); for MIC: read-out: MIC100
Method: (§1) Fungus panel screening was conducted by Eurofins Panlabs Inc. The MIC and MIC50 values of the test articles were determined following the guidelines of the Clinical and Laboratory Standards Institute, broth microdilution methods for yeast (CLSI M27-A2), (CLSI, 2002) and for filamentous fungi (CLSI M38-A), (CLSI, 2008).

[2] = test system: Cryptococcus neoformans; assay: Fungus panel screening, CLSI broth microdilution; format: cell-based; settings: strain ATCC24067, visual inspection (CLSI); for MIC: read-out: MIC100
Method: as §1

[3] = test system: Aspergillus fumigatus isolates; assay: Broth microdilution assay of planktonic fungal growth (modified EUCAST); format: cell-based; settings: Aspergillus fumigatus
Method: This assay was conducted using a modified method published by EUCAST (Rodriguez-Tudela et al., 2008). Spores of Aspergillus fumigatus (NCPF2010, NCPF7010 (Methionine 220 mutation), NCPF7099 (Glycine G54 mutation) from Public Health England, Wiltshire; TR34/L98H mutants from St Louis Hospital, Paris, France) were cultured in Sabouraud dextrose agar for 3 days. A stock spore suspension was prepared from a Sabouraud dextrose agar culture by washing with PBS-tween (10 mL; PBS containing 0.05% Tween-20, 100 U/mL Penicillin and 100 U/mL Streptomycin). The spore count was assessed using a Neubauer haemocytometer and then adjusted to 10^6 spores/mL with PBS. A working suspension of spores (2×10^5 spores/mL) was prepared in filter sterilised, BSA MOPS RPMI-1640 (50 mL; RPMI-1640 containing 2 mM L-glutamine, 0.5% BSA, 2% glucose, 0.165 M MOPS, buffered to pH 7 with NaOH). For the assay, BSA MOPS RPMI-1640 (50 μL/well) was added throughout the 384-well plate (Catalogue number 353962, BD Falcon, Oxford, UK) first. Test compounds (0.5 μL DMSO solution) were then added in quadruplicate using an Integra VIAFLO 96 (Integra, Zizers, Switzerland), and mixed well using a plate mixer. Subsequently 50 μL of the working spore suspension prepared above was added to all wells except non-spore control wells. For non-spore control wells, BSA MOPS-RPMI solution (50 μL/well) was added instead. The plate was covered with a plastic lid, and incubated (35° C. with ambient air) for 48 hr. The OD of each well at 530 nm was determined using a multi-scanner (Clariostar: BMG, Buckinghamshire, UK). The percentage inhibition for each well was calculated and the MIC50, MIC75 and MIC90 values were calculated from the concentration-response curve generated for each test compound.

[4] = test system: Aspergillus fumigatus (ATCC 13073); assay: IFNγ, IL-17 and MDA levels in BALF of Aspergillus fumigatus infected mice; format: in vivo; settings: for ID50, IFNγ in BALF / ID50, IL-17 in BALF / ID50, MDA in BALF: Prophylactic Regimen
Method: Aspergillus fumigatus (ATCC 13073 [strain: NIH 5233], American Type Culture Collection, Manassas, Va., USA) was grown on Malt agar (Nissui Pharmaceutical, Tokyo, Japan) plates for 6-7 days at RT (24±1° C.). Spores were aseptically dislodged from the agar plates and suspended in sterile distilled water with 0.05% Tween 80 and 0.1% agar. On the day of infection, spore counts were assessed by haemocytometer and the inoculum was adjusted to obtain a concentration of 1.67×10^8 spores mL^−1 of physiological saline.
On day 0, animals were infected with the spore suspension (35 μL intra-nasally).
Test compounds were administered intra-nasally ([…]) once daily, 30 min before infection on day 0 and then on days 1, 2 and 3 (representing prophylactic treatment) or on days 1, 2 and 3 only (representing therapeutic treatment). For extended prophylactic treatment, test compounds (35 μL of a suspension of 0.0032 or 0.016 mg/mL in physiological saline) were administered intra-nasally once daily for seven days; then 30 min before infection on day 0, and thereafter, either on days 1, 2 and 3 after infection, or on day 0 only. The effects of these treatment paradigms were compared with those obtained when treatment was restricted to one day and 30 min before inoculation and then on days 1, 2 and 3 post infection; or reduced still further to one day and 30 min before infection only.
Six hours after the last dose, animals were anesthetised, the trachea was cannulated and BALF was collected. The total number of alveolar cells was determined using a haemocytometer, and the numbers of alveolar macrophages and neutrophils were determined by FACS analysis (EPICS® ALTRA II, Beckman Coulter, Inc., Fullerton, Calif., USA) using anti-mouse MOMA2-FITC (macrophage) or anti-mouse 7/4 (neutrophil), respectively, as previously reported (Kimura et al., 2013). The levels of IFN-γ and IL-17 in BALF, and IL-6 and TNFα in serum were determined using Quantikine® mouse IFN-γ, IL-17, IL-6 or TNF-α ELISA kit (R&D systems, Inc., Minneapolis, Minn., USA) respectively. MDA, an oxidative stress marker, was assayed using OxiSelect® TBARS Assay Kits (MDA Quantitation; Cell Biolabs Inc, San Diego, Calif., USA). Aspergillus GM in serum was determination using Platelia GM-EIA kits (Bio-Rad Laboratories, Redmond, Wash., USA). Cut-off index was calculated by the formula: Cut-off index=OD in sample/OD in cut-off control provided in kit. For tissue fungal load assays, 100 mg of lung tissue was removed aseptically and homogenized in 0.2 mL of 0.1% agar in sterile distilled water. Serially diluted lung homogenates were plated on Malt agar plates (50 μL/plate), and incubated at 24±1° C. for 72 to 96 h. The colonies of A. fumigatus on each plate was counted and the fungal titre presented as CFU per gram of lung tissue.

[5] = isolate NCPF7099, broth microdilution, read-out: MIC75
[6] = prophylactic, 0.08 mg/mL intra-nasally
[7] = prophylactic, 0.4 mg/mL intra-nasally
[8] = prophylactic, 2 mg/mL intra-nasally
[9] = therapeutic, 0.4 mg/mL intra-nasally
[10] = therapeutic, 2 mg/mL intra-nasally
[11] = therapeutic, 10 mg/mL intra-nasally

CC[C@@H]([C@H](C)O)n1ncn(-c2ccc(N3CCN(c4ccc(OC[C@@H]5CO[C@@](Cn6cncn6)(c6ccc(F)cc6F)C5)cc4)CC3)cc2)c1=O [Posaconazole]
MIC50 [1]: 0.063 µg/mL (≈ 0.0899 µM)
MIC [1]: 0.13 µg/mL (≈ 0.186 µM)
MIC50 [2]: 0.016 µg/mL (≈ 0.0228 µM)
MIC [2]: 0.25 µg/mL (≈ 0.357 µM)
MIC ([3]; read-out: MIC75): 0.15 µM (≈ 0.105 µg/mL)
MIC [3, 5]: 0.112 µM (≈ 0.0785 µg/mL)
ID50, IFNγ in BALF [4]: 220 µg/mL (≈ 314 µM)
ID50, IL-17 in BALF [4]: 610 µg/mL (≈ 870 µM)
ID50, MDA in BALF [4]: 690 µg/mL (≈ 985 µM)

C[C@@H](c1ncncc1F)[C@](O)(Cn1cncn1)c1ccc(F)cc1F [Voriconazole]
MIC ([3]; read-out: MIC75): > 2.86 µM
MIC [3, 5]: 0.0967 µM (≈ 0.0338 µg/mL)

Cc1cc(N2CCN(c3ccc(C(=O)Nc4ccc(F)cc4)cc3)CC2)ccc1OC[C@@H]1CO[C@@](Cn2cncn2)(c2ccc(F)cc2F)C1 [Compound (I), 4-(4-(4-(((3R,5R)-5-((1H-1,2,4-triazol-1-yl)methyl)-5-(2,4-difluorophenyl)tetrahydrofuran-3-yl)methoxy)-3-methylphenyl)piperazin-1-yl)-N-(4-fluorophenyl)benzamide]
MIC50 [1]: 1 µg/mL (≈ 1.46 µM)
MIC [1]: > 8 µg/mL
MIC50 [2]: 0.008 µg/mL (≈ 0.0117 µM)
MIC [2]: 1 µg/mL (≈ 1.46 µM)
MIC ([3]; NCPF2010, read-out: MIC75): 0.0136 µM (≈ 0.00929 µg/mL)
MIC ([3]; read-out: MIC75): 0.0567 µM (≈ 0.0387 µg/mL)
MIC [3, 5]: 0.0165 µM (≈ 0.0113 µg/mL)
ID50, IFNγ in BALF [4]: <80 µg/mL
ID50, IL-17 in BALF [4]: 74 µg/mL (≈ 108 µM)
ID50, MDA in BALF [4]: 110 µg/mL (≈ 161 µM)
IFNγ concentration in BALF [4, 6]: 3.7 ± 1.7 pg/mL
IFNγ in BALF, % Inhibition [4, 6]: 60%
IL-17 concentration in BALF [4, 6]: 9.8 ± 5.3 pg/mL
IL-17 in BALF, % Inhibition [4, 6]: 51%
MDA concentration in BALF [4, 6]: 0.96 ± 0.32 µg/mL
MDA in BALF, % Inhibition [4, 6]: 47%
IFNγ concentration in BALF [4, 7]: 3.0 ± 0.8 pg/mL
IFNγ in BALF, % Inhibition [4, 7]: 67%
IL-17 concentration in BALF [4, 7]: 6.7 ± 4.9 pg/mL
IL-17 in BALF, % Inhibition [4, 7]: 66%
MDA concentration in BALF [4, 7]: 0.57 ± 0.22 µg/mL
MDA in BALF, % Inhibition [4, 7]: 68%
IFNγ concentration in BALF [4, 8]: 2.5 ± 0.3 pg/mL
IFNγ in BALF, % Inhibition [4, 8]: 73%
IL-17 concentration in BALF [4, 8]: 3.2 ± 0.8 pg/mL
IL-17 in BALF, % Inhibition [4, 8]: 84%
MDA concentration in BALF [4, 8]: 0.34 ± 0.05 µg/mL
MDA in BALF, % Inhibition [4, 8]: 81%
IFNγ concentration in BALF [4, 9]: 4.3 ± 2.2 pg/mL
IFNγ in BALF, % Inhibition [4, 9]: 53%
IL-17 concentration in BALF [4, 9]: 8.5 ± 2.9 pg/mL
IL-17 in BALF, % Inhibition [4, 9]: 57%
MDA concentration in BALF [4, 9]: 0.45 ± 0.10 µg/mL
MDA in BALF, % Inhibition [4, 9]: 75%
IFNγ concentration in BALF [4, 10]: 3.3 ± 0.8 pg/mL
IFNγ in BALF, % Inhibition [4, 10]: 64%
IL-17 concentration in BALF [4, 10]: 4.0 ± 0.8 pg/mL
IL-17 in BALF, % Inhibition [4, 10]: 80%
MDA concentration in BALF [4, 10]: 0.37 ± 0.10 µg/mL
MDA in BALF, % Inhibition [4, 10]: 79%
IFNγ concentration in BALF [4, 11]: 2.1 ± 0.3 pg/mL
IFNγ in BALF, % Inhibition [4, 11]: 77%
IL-17 concentration in BALF [4, 11]: 2.9 ± 0.7 pg/mL
IL-17 in BALF, % Inhibition [4, 11]: 85%
MDA concentration in BALF [4, 11]: 0.25 ± 0.05 µg/mL
MDA in BALF, % Inhibition [4, 11]: 86%
